Laboratory results taken from patent publication US11377444B2, “Pyridopyrimidine compounds acting as mTORC 1/2 dual inhibitors” (MEDSHINE DISCOVERY INC., priority 2017, dated 2022).
Like-named read-outs stand apart in the source and are kept apart here.

Assays:
[1] = molecular target: T1, mTOR kinase (mTORC1 and mTORC2 kinase complex) (Homo sapiens, UniProt P42345); assay: In vitro evaluation of mTOR kinase inhibitory activity (DiscoverX ligand-bead competition binding, qPCR readout)
T1 construct: purchased DiscoverX; host or cells: HEK-293
Description: Experimental Embodiment 1: In Vitro Evaluation of mTOR Kinase Inhibitory Activity This experiment was performed by DiscoverX. All materials and methods were obtained from DiscoverX.
Kinase activity analysis.
1. Labeled mTOR kinase was stably expressed in HEK-293 cells.
2. Streptavidin magnetic beads were treated with biotinylated small molecule ligands at room temperature for 30 minutes to produce affinity resin for kinase analysis;
3. Ligand beads were blocked with excess biotin and washed with buffer (1% bovine serum albumin, […]) to remove unbound ligand and non-specifically bound ligand;
4. The assembly of kinase and ligand and affinity beads, and the binding reaction between the compound and the three were performed in buffer (20% blocking buffer, 0.17x phosphate buffer, 0.05% Tween […]);
5. The test compounds were dissolved in dimethyl sulfoxide;
6. All test compounds were dissolved in DMSO, and then directly diluted […]
7. The solution was placed in a 384-well polypropylene plate, wherein the volume of each well was 0.02 mL;
8. The plate was shaked for an hour at room temperature;
9. The plate was washed with buffer (1× PBS, 0.05% Tween 20);
10. The affinity beads were resuspended in buffer (1× PBS, 0.05% Tween […] non-biotin affinity ligand) and incubated at room temperature for 30 minutes;
11. The kinase concentration in the eluate was deteced by qPCR.

MCF-7 cell = assay: Cell proliferation inhibitory activity (Cell-Titer-Glo), MCF-7; format: cell-based; details: Homo sapiens, MCF7, 72 h; 3 days incubation
Source text: (§1) Experimental Embodiment 2: Evaluation of Cell Proliferation Inhibitory Activity
(§2) Experiment objective: To detect cell proliferation inhibitory activity of the tested compounds.
(§3) Experimental principle: The luciferase in the Cell-Titer-Glo reagent produces oxyluciferin using luciferin, oxygen and ATP as reaction substrates, and releases energy in the form of light. Since the reaction of luciferase requires ATP, the total amount of light generated by the reaction is proportional to the total amount of ATP that reflects cell viability.
(§4) Cell lines: MCF-7 cell line […], HT-29 cell line (ATCC-HTB-38), OE21 (ECACC-96062201), NCI-N87 cell line (ATCC-CRL-5822)
(§5) Cell culture medium: (RPMI 1640 culture medium (Invitrogen #1868546; 10% serum Invitrogen #1804958; L-glutamine 1×, Invitrogen #1830863; dual antibiotic Hyclone #J170012))
(§6) Cell Titer-Glo® Luminescent Cell Viability Assay Kit (Promega #G7573)
(§7) The cells were inoculated in a 384- or 96-well plate with a density of 1000 cells per well and 25 μL per well according to the instructions of the cell inoculating plate. The edge wells were not inoculated with cells, and was supplemented with […].
(§8) (i) The mother solution of the compound was 10 mM, and diluted with DMSO to an initial concentration of 4 mM. The compound was added to the compound mother solution, 9 μL per well.
(§9) (ii) The compound was diluted with ECHO liquid-handling workstation. Each well of the cell plate was added with 125 nL compound. Each well of the cell wells in 2nd column and 23rd column was added with 125 nL DMSO, and each of the PBS wells in 1st column and 24th column was added with 125 nL DMSO.
(§10) (iii) Each well of the cell plate was supplemented with 25 μL culture medium, the final volume in each well of the cell plate was 50 μL, […] 3 times dilution, 10 concentrations, each concentration was duplicated in left and right wells, the final DMSO concentration was 0.25%.
(§11) 2.3. After addition of the compound, centrifugation was performed at 1000 rpm for 1 min, and the cell plate was placed in a 37° C., 5% CO2 incubator for 3 days.
(§12) The cell plate was taken out from the incubator and equilibrated at room temperature for 30 minutes. 25 μL Cell-Titer-Glo reagent was added to each well, shaken for one minute to mix thoroughly, centrifuged at 1000 rpm for 1 minute. After 10 minutes, the plate was read on PerkinElmer Envision with a […] reading time was set at 0.2 second.

N87 cell = assay: Cell proliferation inhibitory activity (Cell-Titer-Glo), N87; format: cell-based; details: 72 h; 3 days incubation
Source text: as §1, §2, §3, §4, §5, §6, §7, §8, §9, §10, §11, §12

[2] = Pharmacokinetic evaluation in plasma after IV and PO administration; format: in vivo; details: female Balb/c mice; for AUC(0-inf) / AUC(0-t) / C0 / clearance / half-life / MRT inf / MRT last / Vd / Cmax / Tmax / bioavailability: mouse; for MRT inf: read-out: MRT0-inf; for MRT last: read-out: MRT0-last; for Vd: read-out: Vdss
Description: Experimental Embodiment 3: Pharmacokinetic Evaluation
The test compound was mixed with […] (Cremophor EL), vortexed and sonicated to prepare a 1 mg/mL near-clear solution, which was filtered with a microporous filter membrane for future use. Female Balb/c mice of 18 to 20 grams were selected and the solution of the test compound was administered intravenously at a dose of 1 or 2 mg/kg. The test compound was mixed with an aqueous solution of 1% Tween 80, 9% polyethylene glycol 400, and 90% water, vortexed and sonicated to prepare 1 mg/mL near-clear solution, which was filtered with a microporous filter membrane for future use.
Female Balb/c mice of 18 to 20 grams were selected, and the solution of the test compound was orally administered at a dose of 2 or 10 mg/kg. The whole blood was collected at a certain time, and prepared into plasma. The drug concentration was analyzed by LC-MS/MS, and the pharmacokinetic parameters were calculated using Phoenix WinNonlin software (Pharsight Corporation, USA).

[3] = test system: human breast cancer MCF-7 cell subcutaneous xenograft tumor; assay: In vivo pharmacodynamic study, MCF-7 subcutaneous xenograft tumor; design: species or system BALB/c nude mouse; details: 15 mg/kg
Source text: Experimental Embodiment 4: In Vivo Pharmacodynamic Study on BALB/c Nude Mouse Model of Human Breast Cancer MCF-7 Cell Subcutaneous Xenograft Tumor
Experimental objective: To study the efficacy of the test compounds on human breast cancer MCF-7 cell subcutaneous xenograft tumor in BALB/c nude mouse model.
Experimental animals: Female BALB/c nude mice, 6-8 weeks old, weighing 18-22 grams; supplier: Shanghai Xipuer-Bikai Experimental Animal Co., Ltd.
Human breast cancer MCF-7 cells (ECACC, article number: 86012803) were subjected to in vitro monolayer culture under the conditions of EMEM (EBSS)+2 mM […]+1% Non Essential Amino Acids (NEAA) medium containing 10% fetal bovine serum, 100 U/mL penicillin and 100 μg/mL streptomycin, and 37° C., 5% CO2incubator. Conventional digestion treatment was carried out with trypsin-EDTA twice a week for cell passage. When the cell saturation was 80%-90%, and the quantity reached the requirement, the cells were collected, counted and inoculated.
Estrogen tablets (0.18 mg) were inoculated into the left back of each mouse three days before cell inoculation, 0.2 mL (1×10^7) MCF-7 cells (added with matrigel, volume ratio of 1:1) were subcutaneously inoculated into the right back of each mouse. When the average volume of tumor reached 142 mm^3, the mice were divided into groups and began to be administrated.
The test compounds were prepared into clear solutions of 0.75 mg/mL, 1.5 mg/mL and 3 mg/mL. The vehicles were 5% DMSO+30% polyethylene glycol 300+65% water.
The experimental indexes were used for investigating whether the growth of the tumors had been inhibited, delayed or cured. The diameters of the tumors were measured with vernier calipers twice a week. The calculation formula of the tumor volume was: V=0.5a×b^2, wherein a and b represent the long and short diameters of the tumor respectively.
The antitumor efficacy of the compound was evaluated by TGI (%) or relative tumor proliferation rate T/C (%). TGI (%) reflects the inhibition rate of the tumor growth. Calculation of TGI (%): TGI (%)=[1−(average tumor volume at the end of administration in the treatment group−average tumor volume at the beginning of administration in the treatment group)/(average tumor volume at the end of treatment in the vehicle control group−average tumor volume at the beginning of treatment in the vehicle control group)]×[…].
Relative tumor proliferation rate T/C (%): The calculation formula was as follows: T/C %=TRTV/CRTV at the beginning of the treatment (TRTV: treatment group RTV; CRTV: negative control group RTV). The relative tumor volume (RTV) was calculated according to the results of tumor measurement. The calculation formula was RTV=Vt/V0, wherein V0 is the average tumor volume measured during administration of the groups (i.e. d0), and Vt is the average tumor volume during a certain measurement, the TRTV and CRTV were taken on the same day.
Statistical analysis included the mean and standard error (SEM) of tumor volume at each time point in each group. […] The comparison between two groups was analyzed by T-test, and the comparison between three or more groups was analyzed by one-way ANOVA.

| Kd [1] [nM] | IC50 (MCF-7 cell) [nM] | AUCExtra ([2]; IV 1 mg/kg) [%] | AUMCExtra ([2]; IV 1 mg/kg) [%] | Tlast ([2]; IV 1 mg/kg) [h] | AUCExtra ([2]; PO 2 mg/kg) [%] | AUMCExtra ([2]; PO 2 mg/kg) [%] | Tlast ([2]; PO 2 mg/kg) [h] | AUC(0-inf) ([2]; IV 1 mg/kg) [µM·h] | AUC(0-t) ([2]; IV 1 mg/kg) [µM·h] | C0 ([2]; IV 1 mg/kg) [µM] | clearance ([2]; IV 1 mg/kg) [mL/min/kg] | half-life ([2]; IV 1 mg/kg) [min] | MRT inf ([2]; IV 1 mg/kg) [h] | MRT last ([2]; IV 1 mg/kg) [h] | Vd ([2]; IV 1 mg/kg) [L/kg] | AUC(0-inf) ([2]; PO 2 mg/kg) [µM·h] | AUC(0-t) ([2]; PO 2 mg/kg) [µM·h] | Cmax ([2]; PO 2 mg/kg) [µM] | SMILES | IC50 (N87 cell) [nM] | other results |
| --- | --- | --- | --- | --- | --- | --- | --- | --- | --- | --- | --- | --- | --- | --- | --- | --- | --- | --- | --- | --- | --- |
| 0.4 | 105 | 0.246 | 1.59 | 12.0 | 1.84 | 8.59 | 8.00 | 7.4 | 7.38 | 2.49 | 5.07 | 82.8 | 2.16 | 2.13 | 0.657 | 8.75 | 8.59 | 3.49 | C[C@H]1COC2(CCC2)CN1c1nc(N2CCOC[C@@H]2C)c2ccc(-c3cccc(C(N)=O)c3)nc2n1 [Embodiment 35] | 44 | Tmax ([2]; PO 2 mg/kg): 15 min; bioavailability ([2]; PO 2 mg/kg): 56.1%; half-life ([2]; PO 2 mg/kg): 79.8 min; MRT inf ([2]; PO 2 mg/kg): 2.13 h; MRT last ([2]; PO 2 mg/kg): 1.98 h |
| 0.24 | 171 |  |  |  |  |  |  |  |  |  |  |  |  |  |  |  |  |  | C[C@H]1COCCN1c1nc(N2CCOC3(CCC3)C2)nc2nc(-c3cccc(C(N)=O)c3)ccc12 [Embodiment 44] | 89 | T/C [3]: 50.58%; TGI [3]: 65.23%; RTV (27th day) ([3]; 27th day): 2.11 ± 0.39; Tumor volume (27th day) ([3]; 27th day, mean ± SEM): 298 ± 55 mm^3; Tumor volume (day 0) ([3]; day 0, mean ± SEM): 143 ± 13 mm^3 |
|  |  | 0.0522 | 0.540 | 12 | 0.0673 | 0.493 | 12.0 | 9.47 | 9.46 | 9.7 | 3.49 | 60.6 | 1.3 | 1.29 | 0.272 | 16.3 | 16.3 | 7.73 | CNC(=O)c1cc(-c2ccc3c(N4CCOC[C@@H]4C)nc(N4CCOC5(CC5)C4)nc3n2)ccc1OC [Embodiment 55] | 120 | Tmax ([2]; PO 2 mg/kg): 30 min; bioavailability ([2]; PO 2 mg/kg): 86.1%; half-life ([2]; PO 2 mg/kg): 69 min; MRT inf ([2]; PO 2 mg/kg): 1.86 h; MRT last ([2]; PO 2 mg/kg): 1.86 h |
